Residue numbers refer to the chain shown, from its start.
Assays:
[1] = molecular target: T1, peroxisome proliferator-activated receptor-γ (PPAR-γ) (Homo sapiens, UniProt P37231); conditions: Ricote et al.; Jiang et al.; cited from earlier work
T1 sequence (P37231 1-505): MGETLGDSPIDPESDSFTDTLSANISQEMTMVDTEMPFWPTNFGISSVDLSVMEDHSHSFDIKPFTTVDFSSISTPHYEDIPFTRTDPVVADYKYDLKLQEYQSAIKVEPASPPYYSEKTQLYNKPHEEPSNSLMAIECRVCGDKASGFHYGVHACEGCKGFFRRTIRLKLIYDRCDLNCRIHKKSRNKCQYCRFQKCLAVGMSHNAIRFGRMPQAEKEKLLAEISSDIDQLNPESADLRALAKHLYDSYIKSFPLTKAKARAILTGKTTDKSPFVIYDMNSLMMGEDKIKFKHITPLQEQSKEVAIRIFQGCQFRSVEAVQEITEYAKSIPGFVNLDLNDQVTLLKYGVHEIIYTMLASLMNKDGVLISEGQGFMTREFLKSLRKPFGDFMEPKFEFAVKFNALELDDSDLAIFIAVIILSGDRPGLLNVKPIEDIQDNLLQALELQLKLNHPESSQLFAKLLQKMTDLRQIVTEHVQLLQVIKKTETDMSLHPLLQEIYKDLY

IKKβ(C179A) = molecular target: T2, IKKβ(C179A) (Homo sapiens, UniProt O14920, C179A); experiment: 2XNFκB-LUC reporter in HeLa cells with NIK and IKKβ(C179A); assay type: cell-based; parameters: FLAG; made in house; conditions: luciferase at 24 hours, FIG. 6E
T2 sequence (O14920 1-756 C179A): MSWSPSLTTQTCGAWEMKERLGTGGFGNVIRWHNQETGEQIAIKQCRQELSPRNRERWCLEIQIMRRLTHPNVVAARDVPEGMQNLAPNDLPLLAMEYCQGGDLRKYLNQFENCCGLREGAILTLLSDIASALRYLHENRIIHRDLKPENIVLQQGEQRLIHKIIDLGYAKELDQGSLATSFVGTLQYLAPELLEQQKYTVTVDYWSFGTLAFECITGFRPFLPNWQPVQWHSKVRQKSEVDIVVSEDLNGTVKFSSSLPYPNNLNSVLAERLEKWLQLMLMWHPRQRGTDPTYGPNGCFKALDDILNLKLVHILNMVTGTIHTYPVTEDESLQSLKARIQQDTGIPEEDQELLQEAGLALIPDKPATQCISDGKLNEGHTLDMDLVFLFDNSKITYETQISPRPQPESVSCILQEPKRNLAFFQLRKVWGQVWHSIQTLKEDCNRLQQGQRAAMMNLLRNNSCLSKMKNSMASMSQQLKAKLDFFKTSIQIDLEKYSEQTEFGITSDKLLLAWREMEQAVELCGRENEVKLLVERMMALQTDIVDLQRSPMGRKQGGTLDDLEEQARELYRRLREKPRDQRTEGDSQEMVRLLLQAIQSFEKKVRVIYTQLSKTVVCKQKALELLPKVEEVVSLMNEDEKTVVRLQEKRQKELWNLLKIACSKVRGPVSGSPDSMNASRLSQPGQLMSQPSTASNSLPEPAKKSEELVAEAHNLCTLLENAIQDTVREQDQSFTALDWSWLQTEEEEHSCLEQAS
Protocol: Recombinant IKKβ(C179A) was also resistant to concentrations of 15dPGJ2 that were inhibitory to wild-type IKKβ (as shown in FIG. 6D), and also to PGA1. An NF-κB dependent transcriptional reporter (2XNFκB-LUC) was preincubated with expression vector encoding either wild-type IKKβ or IKKβ(C179A). A NIK expression vector was included to ensure maximal IKK activation. […] FIG. 6E provides the results for HeLa cells transiently transfected with a 2×NF-κB-LUC reporter, a NIK expression vector and expression vectors for wild type IKKβ or IKKβ(C179A). At 3 hours post-transfection, cells were treated with 15dPGJ2 and at 24 hours, the luciferase activities were determined for duplicate samples. In each case, the maximal activity achieved in the absence of inhibitor was given an arbitrary value of 100% and the other values were calculated relative to this one.

NF-κB = NF-κB activation by TPA in human cells expressing very low levels of PPAR-γ; assay type: cell-based; conditions: human cells with very low PPAR-γ, data not shown
IKKβ = molecular target: T3, IKKβ (Homo sapiens, UniProt O14920); experiment: Recombinant wild-type IKKβ (Sf9) kinase activity; assay type: biochemical; parameters: FLAG; made in house; host or cells: Sf9 (baculovirus)
T3 sequence (O14920 1-756): T2 sequence (O14920 1-756 C179A) with A179C
Protocol: In addition, recombinant IKKβ was expressed in Sf9 cells and purified as described (Zandi et al., supra). AA, PGs, LTB4, and T×B2 were added to washed imnmunoprecipitates of recombinant IKKβ in kinase buffer to a final volume of 500 μl. After 1.5 hours at 4° C., the immunoprecipitates were washed and the kinase activity determined. Western blot analysis was also performed as known in the art (See e.g., Rossi et al., supra).
In other experiments, purified recombinant IKKβ immobilized on beads with 15dPGJ2 or diluent were preincubated and extensively rinsed with kinase buffer lacking the inhibitor.

sensitivity of NF-κB activation through IKKβ(C179A) (IKKβ(C179A)): insensitive
effect on recombinant wild-type IKKβ (IKKβ; FIG. 6D): inhibitory
inhibition after extensive washing (reversibility) (IKKβ; recombinant IKKβ on beads pre-incubated with inhibitor, rinsed with kinase buffer): remained inhibited
Compound: CCCCC/C=C/C=C1/C(=O)C=C[C@@H]1C/C=C\CCCC(=O)O [15dPGJ2, 15-deoxy-Δ^12-14-PGJ2]
activation of PPAR-γ [1]: activate
inhibition of NF-κB activation by TPA (NF-κB): potent inhibitor
